For 1 compound, inhibition and Competition % results are on record in patent US20120270237A9, “METHODS FOR THE IDENTIFICATION OF KINASE INTERACTING MOLECULES AND FOR THE PURIFICATION OF KINASE PROTEINS” (Cellzone AG, priority 2009, published 2012).

The term inhibition denotes the change of the read-out against control, counted positive when it falls. The low end stands for little suppression, the high end for strong suppression.

One test deals with MAP2K1 (Homo sapiens, UniProt Q02750). As to the kind of experiment: Kinobeads competition binding, HL60 cell lysate. The arrangement: Identified kinases with CZC31326 from HL60 lysate; endogenous in cells; host or cells: HL60. To be noted: 10 μM free compound. As to the method: (§1) To one aliquot of cell lysate 10 μM of the free compound (FIG. 3, CZC31326) was added and allowed to bind to proteins in the lysate. Then the affinity matrix with the immobilized compound (Example 1) was added to capture proteins that were not interacting with the previously added free compound. Beads were separated from the lysate and bead bound proteins were eluted in SDS sample buffer and subsequently separated by SDS-Polyacrylamide gel electrophoresis (FIG. 4). Suitable gel bands were cut out and subjected to in-gel proteolytic digestion with trypsin. The second lysate aliquot was processed identically, however no free compound was added (DMSO solvent control). Peptides originating from samples 1 and 2 were labeled with iTRAQ reagents (iTRAQ 114 and iTRAQ 117) and the combined samples were analyzed with a nano-flow liquid chromatography system coupled online to a tandem mass spectrometer (LC-MS/MS) experiment followed by iTRAQ reporter ion quantification in the MS/MS spectra (Ross et al., 2004. Mol. Cell. Proteomics 3(12):1154-1169). Further experimental protocols can be found in WO2006/134056 and a previous publication (Bantscheff et al., 2007. Nature Biotechnology 25, 1035-1044). Sepharose-beads with the immobilized compound (100 μl beads per pull-down experiment) were equilibrated in lysis buffer and incubated with a cell lysate sample containing 50 mg of protein on an end-over-end shaker (Roto Shake Genie, Scientific Industries Inc.) for 2 hours at 4° C. Beads were collected, transferred to Mobicol-columns (MoBiTech 10055) and washed with 10 ml lysis buffer containing 0.4% NP40 detergent, followed by 5 ml lysis buffer containing 0.2% detergent. To elute bound proteins, 60 μl 2×SDS sample buffer was added to the column. The column was incubated for 30 minutes at 50° C. and the eluate was transferred to a siliconized microfuge tube by centrifugation. Proteins were then alkylated with 108 mM iodoacetamid. Proteins were then separated by SDS-Polyacrylamide electrophoresis (SDS-PAGE). The peptide extracts of samples treated with 10 μM of free compound (CZC31326) and the solvent control (0.5% DMSO) were treated with different variants of the isobaric tagging reagent (iTRAQ Reagents Multiplex Kit, part number 4352135, Applied Biosystems, Foster City, Calif., USA). The iTRAQ reagents are a set of multiplexed, amine-specific, stable isotope reagents that can label peptides on amino groups in up to four different biological samples enabling simultaneous identification and quantitation of peptides. […] Relative protein quantitation was performed using peak areas of iTRAQ reporter ion signals essentially as described in an earlier publication (Bantscheff et al., 2007. Nature Biotechnology 25, 1035-1044).
MAP2K1, sequence (Q02750 whole entry): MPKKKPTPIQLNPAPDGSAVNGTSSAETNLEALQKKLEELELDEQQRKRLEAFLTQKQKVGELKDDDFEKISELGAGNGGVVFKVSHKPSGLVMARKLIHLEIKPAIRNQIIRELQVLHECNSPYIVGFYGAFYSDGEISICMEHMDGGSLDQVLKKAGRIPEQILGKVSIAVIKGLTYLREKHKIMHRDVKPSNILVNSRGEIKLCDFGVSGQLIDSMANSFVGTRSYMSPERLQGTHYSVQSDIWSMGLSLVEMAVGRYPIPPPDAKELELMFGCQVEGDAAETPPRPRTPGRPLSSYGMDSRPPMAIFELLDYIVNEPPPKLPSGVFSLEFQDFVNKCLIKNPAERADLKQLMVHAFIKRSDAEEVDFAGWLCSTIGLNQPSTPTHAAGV

A further test concerns the target MAP2K3 (Homo sapiens, UniProt P46734). As to the kind of experiment: Kinobeads competition binding, HL60 cell lysate. The following applies: 10 μM free compound. The arrangement: Identified kinases with CZC31326 from HL60 lysate; endogenous in cells; host or cells: HL60. As to the method:
as §1

In another test the target is LRRK2 (Homo sapiens, UniProt Q5S007). The test can be described thus: Kinobeads competition binding, HL60 cell lysate. The following applies: 10 μM free compound. The arrangement: Identified kinases with CZC31326 from HL60 lysate; endogenous in cells; host or cells: HL60. As to the method:
as §1

The target of a further test is LOK (Homo sapiens, UniProt O94804). The test can be described thus: Kinobeads competition binding, HL60 cell lysate. The arrangement: Identified kinases with CZC31326 from HL60 lysate; endogenous in cells; host or cells: HL60. The following applies: 10 μM free compound. As to the method:
as §1

In another test the target is PLK4 (Homo sapiens, UniProt O00444). The test can be described thus: Kinobeads competition binding, L-363 cell lysate. The arrangement: endogenous in cells; host or cells: L-363 cells (treated with MG132 before harvest). The following applies: 10 μM free compound, L-363 lysate. As to the method: (§2) To one aliquot of cell lysate 10 μM of the free compound (FIG. 3, CZC31326) was added and allowed to bind to proteins in the lysate. Then the affinity matrix with the immobilized compound was added to capture proteins that were not interacting with the previously added free compound. Beads were separated from the lysate and bead bound proteins were eluted in SDS sample buffer and subsequently separated by SDS-Polyacrylamide gel electrophoresis (FIG. 8). Suitable gel bands were cut out and subjected to in-gel proteolytic digestion with trypsin. The second lysate aliquot was processed identically, however no free compound was added (DMSO solvent control). Peptides originating from samples 1 and 2 were labeled with iTRAQ reagents (iTRAQ 114 and iTRAQ 117) and the combined samples were analyzed with a nano-flow liquid chromatography system coupled online to a tandem mass spectrometer (LC-MS/MS) experiment followed by iTRAQ reporter ion quantification in the MS/MS spectra as described in Example 2.
(§3) For this experiment the human plasma cell leukaemia line L-363 was used (German Collection of Microorganisms and Cell Cultures, DSMZ number ACC49, Braunschweig, Germany). Cells were treated for three hours with 20 μM of the proteasome inhibitor MG132 (Z-Leu-Leu-Leu-al, Sigma C2211) prior to cell harvesting.

The next test has as its target STK33 (Homo sapiens, UniProt Q9BYT3). The test can be described thus: Kinobeads competition binding, L-363 cell lysate. The arrangement: endogenous in cells; host or cells: L-363 cells (treated with MG132 before harvest). The following applies: 10 μM free compound, L-363 lysate. As to the method: as §2, §3

MAP2K3, sequence (P46734 whole entry): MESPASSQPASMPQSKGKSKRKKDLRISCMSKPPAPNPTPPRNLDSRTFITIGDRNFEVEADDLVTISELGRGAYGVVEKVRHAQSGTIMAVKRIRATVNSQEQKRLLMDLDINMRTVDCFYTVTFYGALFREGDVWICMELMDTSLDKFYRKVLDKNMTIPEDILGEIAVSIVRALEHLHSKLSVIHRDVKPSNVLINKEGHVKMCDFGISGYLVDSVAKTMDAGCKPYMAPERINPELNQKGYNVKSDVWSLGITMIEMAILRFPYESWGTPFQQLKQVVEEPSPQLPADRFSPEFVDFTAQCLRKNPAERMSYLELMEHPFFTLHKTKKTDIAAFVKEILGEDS
LRRK2, sequence (Q5S007 whole entry): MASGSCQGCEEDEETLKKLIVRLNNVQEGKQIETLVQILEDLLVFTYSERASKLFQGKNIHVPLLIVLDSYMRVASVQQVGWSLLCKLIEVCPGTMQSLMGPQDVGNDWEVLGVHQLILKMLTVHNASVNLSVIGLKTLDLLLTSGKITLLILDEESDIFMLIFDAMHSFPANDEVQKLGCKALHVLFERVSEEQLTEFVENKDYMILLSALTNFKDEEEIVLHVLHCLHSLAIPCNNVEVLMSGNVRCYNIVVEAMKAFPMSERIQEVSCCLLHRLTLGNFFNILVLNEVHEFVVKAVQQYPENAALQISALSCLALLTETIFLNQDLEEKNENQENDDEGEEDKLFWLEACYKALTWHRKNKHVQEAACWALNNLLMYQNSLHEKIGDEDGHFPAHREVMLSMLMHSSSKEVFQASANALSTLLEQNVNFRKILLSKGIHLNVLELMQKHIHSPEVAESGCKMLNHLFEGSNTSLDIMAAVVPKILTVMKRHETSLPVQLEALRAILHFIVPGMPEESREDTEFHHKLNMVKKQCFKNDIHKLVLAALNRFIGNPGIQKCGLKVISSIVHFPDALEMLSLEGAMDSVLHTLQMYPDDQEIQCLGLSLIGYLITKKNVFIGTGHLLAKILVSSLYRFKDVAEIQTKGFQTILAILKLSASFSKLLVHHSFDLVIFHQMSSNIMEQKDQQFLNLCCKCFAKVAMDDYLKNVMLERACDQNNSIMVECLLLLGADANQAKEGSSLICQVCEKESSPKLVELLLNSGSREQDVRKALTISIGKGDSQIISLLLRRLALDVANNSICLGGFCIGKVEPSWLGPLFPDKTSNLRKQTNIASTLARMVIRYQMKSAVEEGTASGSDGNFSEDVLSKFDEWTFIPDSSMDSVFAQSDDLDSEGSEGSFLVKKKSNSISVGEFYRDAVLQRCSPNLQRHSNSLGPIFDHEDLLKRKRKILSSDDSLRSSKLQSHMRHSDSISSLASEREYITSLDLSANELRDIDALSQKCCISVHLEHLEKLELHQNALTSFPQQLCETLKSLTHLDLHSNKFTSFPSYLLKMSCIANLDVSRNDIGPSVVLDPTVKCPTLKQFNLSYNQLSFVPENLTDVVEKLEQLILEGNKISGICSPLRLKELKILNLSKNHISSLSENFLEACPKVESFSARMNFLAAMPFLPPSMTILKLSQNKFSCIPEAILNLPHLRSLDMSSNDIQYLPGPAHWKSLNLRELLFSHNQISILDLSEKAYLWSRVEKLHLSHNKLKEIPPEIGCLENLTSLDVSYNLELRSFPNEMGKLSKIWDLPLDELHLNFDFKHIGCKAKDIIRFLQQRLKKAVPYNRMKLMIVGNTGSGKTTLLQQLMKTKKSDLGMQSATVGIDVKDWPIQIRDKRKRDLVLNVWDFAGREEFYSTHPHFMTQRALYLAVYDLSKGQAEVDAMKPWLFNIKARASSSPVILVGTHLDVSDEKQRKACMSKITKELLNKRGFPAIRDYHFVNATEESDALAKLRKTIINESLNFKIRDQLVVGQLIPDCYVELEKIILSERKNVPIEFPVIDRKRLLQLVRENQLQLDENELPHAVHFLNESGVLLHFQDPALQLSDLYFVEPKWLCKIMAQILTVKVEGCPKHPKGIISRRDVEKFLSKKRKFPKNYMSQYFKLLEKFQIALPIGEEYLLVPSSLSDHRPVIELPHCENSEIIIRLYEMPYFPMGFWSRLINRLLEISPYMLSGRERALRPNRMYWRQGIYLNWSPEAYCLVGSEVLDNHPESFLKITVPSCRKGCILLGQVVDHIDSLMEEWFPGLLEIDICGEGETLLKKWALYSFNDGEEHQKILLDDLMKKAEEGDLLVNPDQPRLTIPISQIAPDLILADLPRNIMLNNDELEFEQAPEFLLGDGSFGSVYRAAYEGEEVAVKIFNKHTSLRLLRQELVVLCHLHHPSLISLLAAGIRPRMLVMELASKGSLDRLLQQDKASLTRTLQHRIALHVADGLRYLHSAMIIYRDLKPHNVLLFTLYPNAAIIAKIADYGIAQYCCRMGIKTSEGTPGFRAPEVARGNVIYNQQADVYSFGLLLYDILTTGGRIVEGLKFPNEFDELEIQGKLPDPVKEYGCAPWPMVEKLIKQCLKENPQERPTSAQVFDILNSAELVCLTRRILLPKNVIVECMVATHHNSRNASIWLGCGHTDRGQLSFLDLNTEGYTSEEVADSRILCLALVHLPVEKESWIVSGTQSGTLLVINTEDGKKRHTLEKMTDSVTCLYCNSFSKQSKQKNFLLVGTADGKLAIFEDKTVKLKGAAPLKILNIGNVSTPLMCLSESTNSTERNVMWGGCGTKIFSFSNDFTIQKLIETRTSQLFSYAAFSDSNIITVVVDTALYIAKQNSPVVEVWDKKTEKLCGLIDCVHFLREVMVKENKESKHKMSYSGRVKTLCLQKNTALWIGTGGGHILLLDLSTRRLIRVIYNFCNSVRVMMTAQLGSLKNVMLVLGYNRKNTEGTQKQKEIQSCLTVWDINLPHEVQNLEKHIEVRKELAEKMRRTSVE
STK33, sequence (Q9BYT3 whole entry): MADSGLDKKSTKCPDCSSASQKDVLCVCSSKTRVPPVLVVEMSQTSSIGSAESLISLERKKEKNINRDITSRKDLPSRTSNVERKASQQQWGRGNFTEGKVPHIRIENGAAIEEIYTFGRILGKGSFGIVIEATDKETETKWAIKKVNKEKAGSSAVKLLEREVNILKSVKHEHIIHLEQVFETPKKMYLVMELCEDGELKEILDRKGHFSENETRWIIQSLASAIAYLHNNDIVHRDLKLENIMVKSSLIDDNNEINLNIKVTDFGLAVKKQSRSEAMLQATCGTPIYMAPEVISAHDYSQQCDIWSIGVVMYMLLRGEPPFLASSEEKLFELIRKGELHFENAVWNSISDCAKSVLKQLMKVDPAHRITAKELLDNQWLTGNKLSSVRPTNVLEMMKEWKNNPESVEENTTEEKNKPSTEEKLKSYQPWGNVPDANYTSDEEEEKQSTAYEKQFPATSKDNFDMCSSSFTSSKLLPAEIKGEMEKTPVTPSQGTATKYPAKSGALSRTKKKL
LOK, sequence (O94804 whole entry): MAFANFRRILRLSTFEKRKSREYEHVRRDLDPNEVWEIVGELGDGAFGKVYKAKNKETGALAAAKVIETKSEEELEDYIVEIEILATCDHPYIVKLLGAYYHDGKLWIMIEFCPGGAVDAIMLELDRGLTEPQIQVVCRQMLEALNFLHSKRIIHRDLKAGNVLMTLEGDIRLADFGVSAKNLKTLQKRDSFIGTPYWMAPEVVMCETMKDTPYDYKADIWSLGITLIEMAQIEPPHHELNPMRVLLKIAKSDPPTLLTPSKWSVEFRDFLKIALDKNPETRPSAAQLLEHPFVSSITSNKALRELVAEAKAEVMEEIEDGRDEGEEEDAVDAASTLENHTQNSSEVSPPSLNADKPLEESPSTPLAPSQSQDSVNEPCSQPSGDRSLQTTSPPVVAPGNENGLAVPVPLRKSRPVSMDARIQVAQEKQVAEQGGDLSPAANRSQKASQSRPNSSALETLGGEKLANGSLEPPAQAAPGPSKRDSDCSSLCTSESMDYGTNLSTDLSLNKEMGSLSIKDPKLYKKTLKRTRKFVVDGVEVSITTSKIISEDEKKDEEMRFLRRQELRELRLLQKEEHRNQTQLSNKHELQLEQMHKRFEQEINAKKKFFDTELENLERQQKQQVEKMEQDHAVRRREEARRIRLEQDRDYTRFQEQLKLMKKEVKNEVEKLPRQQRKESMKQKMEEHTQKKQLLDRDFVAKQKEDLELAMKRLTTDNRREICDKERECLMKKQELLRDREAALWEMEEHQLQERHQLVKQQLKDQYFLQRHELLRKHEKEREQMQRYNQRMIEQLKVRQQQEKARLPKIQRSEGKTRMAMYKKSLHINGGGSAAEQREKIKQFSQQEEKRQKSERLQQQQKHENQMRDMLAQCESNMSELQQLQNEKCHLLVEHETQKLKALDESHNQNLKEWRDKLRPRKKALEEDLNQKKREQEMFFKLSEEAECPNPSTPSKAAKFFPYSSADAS

For `CS(=O)(=O)Nc1ccccc1Nc1nc(Nc2cccc(OCCN)c2)ncc1Cl` [CZC31326, N-(2-(2-(3-(2-aminoethoxy)phenylamino)-5-chloropyrimidin-4-ylamino)phenyl)methanesulfonamide], the inhibition at 10 µM amounted to 85.2% at MAP2K1; 90.9% on MAP2K3; 71.7% on LRRK2; 91.2% on PLK4; 95.7% on STK33. For the same compound, the Competition % at LOK stood at 95.3%.
